Source: patent EP0033503A2, “Medicaments with cytostatic activity and use of cyclic compounds, in which the heterocyclic N-ring atoms are substituted by several glycidyl groups, in pharmaceutical compositions” (Henkel Kommanditgesellschaft auf Aktien, priority 1980, dated 1981)
Read-outs that look alike come from different tables or passages of the source.

Tested on: Tumorart P 388 (Leukämie)
Assay: Survival of mice bearing P 388 leukemia (NCI protocol 1200), T/C
Format: in vivo, Maus
Settings: for Testergebnis in % T/C: repeat experiment
Text: Die nachfolgenden Versuche wurden durchgeführt nach Testvorschriften des National Cancer Institute Bethesda, Maryland 200014, veröffentlicht in Cancer Chemotherapy Reports" Part. 3, September 1972, Vol. 3, Nr. 2. Als Wirksubstanz wurde 1,3-Diglycidyl-benzimidazolon des i vorstehenden Beispiels 1 verwendet. Die Substanz wurde als wäßrige, 1%ige Injektionslösung unmittelbar vor der Applikation frisch hergestellt.
Bei Mäusen wurde gemäß Protokoll 1200 (Seite 91, c.) die Tumorart P 388 (Leukämie) i.p. mit 10^6 Zellen/Maus gesetzt. Die unbehandelten Tiere hatten eine mittlere überlebensdauer von 9,9 Tagen.
Es wird der Wirkstoff appliziert. Der Wirkstoff wird dabei in 9.Gaben in unterschiedlichen Versuchsreihen einmal zu je 200 mg/kg und in einer anderen zu 100 mg/kg und in einer dritten Versuchsreihe zu je 50 mg/kg verabreicht. In beiden Fällen wird eine signifikante Verlängerung der Lebensdauer der behandelten Testtiere gegenüber der Kontrollgruppe der nicht behandelten Tiere erzielt. […] Bei der Testgruppe mit der Dosis von 100 mg/kg beträgt die durchschnittliche Lebenserwartung der Versuchstiere 18 Tage, T/C 181 %. Die Gruppe mit der Dosis 50 mg/kg hatte eine durchschnittliche Lebenserwartung von 15,3 Tagen, T/C 154 %. […]

[1] = Mus musculus, P388, read-out: Verlängerungsrate T/C (Testergebnis in % T/C), 50 mg/kg per single dose, 9 doses, first test series
[2] = Mus musculus, P388, read-out: Verlängerungsrate T/C (Testergebnis in % T/C), 100 mg/kg per single dose, 9 doses, first test series

Compound | durchschnittliche Lebenserwartung der Versuchstiere (100 mg/kg per single dose, 9 doses) | Testergebnis in % T/C (100 mg/kg) [%] | durchschnittliche Lebensdauer der Testgruppe (200 mg/kg per single dose, 9 doses) [Tage] | Testergebnis in % T/C (200 mg/kg) [%] | response vs control in vivo at 25 mg/kg (Mus musculus, P388, 25 mg/kg, second series, unit inferred, read-out: Testergebnis T/C (T/C-Wert)) [%] | response vs control in vivo at 50 mg/kg (Mus musculus, P388, 50 mg/kg per single dose, first series, unit inferred, read-out: Testergebnis T/C (T/C-Wert)) [%] | response vs control in vivo at 50 mg/kg (Mus musculus, P388, 50 mg/kg, second series, unit inferred, read-out: Testergebnis T/C (T/C-Wert)) [%] | response vs control in vivo at 100 mg/kg (Mus musculus, P388, 100 mg/kg per single dose, 9 doses, first test series, read-out: Verlängerungsrate T/C (Testergebnis in % T/C)) [%] | response vs control in vivo at 100 mg/kg (Mus musculus, P388, 100 mg/kg per single dose, first series, unit inferred, read-out: Testergebnis T/C (T/C-Wert)) [%] | response vs control in vivo at 100 mg/kg (Mus musculus, P388, 100 mg/kg, second series, unit inferred, read-out: Testergebnis T/C (T/C-Wert)) [%] | response vs control in vivo at 200 mg/kg (Mus musculus, P388, 200 mg/kg per single dose, 9 doses, first test series, read-out: Verlängerungsrate T/C (Testergebnis in % T/C)) [%] | response vs control in vivo at 200 mg/kg (Mus musculus, P388, 200 mg/kg per single dose, first series, unit inferred, read-out: Testergebnis T/C (T/C-Wert)) [%] | response vs control in vivo at 200 mg/kg (Mus musculus, P388, 200 mg/kg, second series, unit inferred, read-out: Testergebnis T/C (T/C-Wert)) [%] | response vs control in vivo at 50 mg/kg [1] [%] | response vs control in vivo at 100 mg/kg [2] [%] | response vs control in vivo at 200 mg/kg (Mus musculus, P388, read-out: Verlängerungsrate T/C (Testergebnis in % T/C), 200 mg/kg per single dose, 9 doses, first test series) [%] | Testergebnis in % T/C (25 mg/kg) [%] | Testergebnis in % T/C (50 mg/kg) [%] | Testergebnis in % T/C (12,5 mg/kg) [%]
O=c1ccn(CC2CO2)c(=O)n1CC1CO1 (stereo not shown) [Beispiel 13, N,N'-Diglycidyluracil] | 16,0 Tage | 152 | 24 | 198 | 114 | 131 | 124 | 153 | 156 | 152 | 230 | 230 | 198 |  |  |  |  |  | 
O=c1c2c(ncn2CC2CO2)n(CC2CO2)c(=O)n1CC1CO1 (stereo not shown) [Beispiel 23, 1,3,7-Triglycidyl-xanthin] |  |  |  |  |  |  |  |  |  |  |  |  |  | 147 | 147 | 173 |  |  | 
O=c1n(CC2CO2)c2ccc(Cl)cc2n1CC1CO1 (stereo not shown) [R2 -H R3 -Cl, N,N'-Digylcidyl-5-chlor-benzimidazolon] |  | 92 |  |  |  |  |  |  |  |  |  |  |  | 191 | 234 |  | 156 | 181 | 145
